# PMC4449006, “Targeting KRAS Oncogene in Colon Cancer Cells with 7-Carboxylate Indolo[3,2-b]quinoline Tri-Alkylamine Derivatives” (PLoS ONE, 2015)
# Assays:
# KRAS21 G-quadruplex DNA = assay: FRET melting assay, KRAS G-quadruplex DNA; type: binding; details: 1 μM compound; standard deviation < 0.2°C
# Description: (§1) The capacity of compounds 1a-d, 2a-d and the standard G4 ligand TMPyP4 (Fig 1) to bind and stabilize KRAS [26] and HSP90A [27] G4 DNA structures as well as duplex DNA (T-loop) was evaluated by a Fluorescence Resonance Energy Transfer (FRET) melting assay. […] It was observed that the basicity of side chains correlates positively with thermal G4 stabilization of all DNA sequences up to an optimal pKa ~ 8.0–9.0 (Fig 2). Heterocyclic amines at the end of alkyl side chain (1b and 2b) appear to improve binding to G4s and complex stabilization compared to the di-ethylamine group (1a and 2a), which cannot be explained by differences in basicity between terminal groups. […] However, this was not observed for the isomeric pair 1a / 2a.
# (§2) All oligonucleotides were purchased from Eurofins MWG Synthesis GmbH, Germany. The labeled oligonucleotides used in the FRET assays had attached the donor fluorophore FAM (6-carboxyfluorescein) and the acceptor fluorophore TAMRA (6-carboxytetramethylrhodamine): KRAS21R (5’-FAM-[…]-TAMRA-3’); HSP90A (5’- [FAM]-[…]-[TAMRA]-3’); T-Loop (5’-FAM-[…]-TAMRA-3’). Each oligonucleotide was initially diluted to a storage solution at 100 μM in nuclease free water (not DEPC-treated), purchased from Ambion Applied Biosystems UK.
# (§3) The ability of IQ3A and TMPyP4 to stabilize G-quadruplex and duplex DNA sequences was investigated using a Fluorescence Resonance Energy Transfer (FRET) assay. Stock solution of the oligonucleotides sequences at 20 μM and subsequent dilutions were obtained from storage solutions diluting with K-cacodylate buffer pH = 7.4, containing 60 mM K^+ (10 mM potassium cacodylate, 50 mM KCl). The FRET probe sequences were diluted from stock to the correct concentration (0.4 μM) and then annealed by heating to 95°C for 10 min, followed by cooling to RT. Test compounds were prepared as 1 mM in 10% DMSO and 10% 1mM HCl in HPLC-grade water. The rest of the dilutions were performed using FRET buffer. Annealed DNA (50 μL) and compound solution (50 μL) were distributed across 96-well RT-PCR plates (BioRad; MJ Research, Waltham, MA, USA). Relevant controls were also performed to check for interference with the assay. Fluorescence readings were made on a DNA Engine Opticon (MJ Research) with excitation at 450–495 nm and detection at 515–545 nm, taken at intervals of 0.5°C in the range 30–100°C, with a constant temperature being maintained for 30 s prior to each reading to ensure a stable value. Experiments were performed in triplicate. Final analysis of the data was carried out with GraphPad Prism 5.0 software (GraphPad Software, Inc). The advanced curve-fitting function in GraphPad Prism was used for calculation of ΔT m values and associated standard deviations.
# KRAS mRNA = KRAS mRNA steady-state levels by Taqman Real-time RT-PCR; details: HCT116, 72 h, equitoxic concentration
# HCT116 cells = assay: MTS short-term cytotoxicity assay (72 h), HCT116; type: cell-based, human
# Description: (§4) The short-term effect of compounds at 72 h on cell growth was studied using colorectal carcinoma cell lines with different KRAS and TP53 genotypes: human colorectal carcinoma HCT116 (mut Kras, wild-type (wt) p53), and human metastatic colorectal adenocarcinoma SW620 (mut Kras, mut p53). In parallel, we also used the immortalized human embryonic kidney cell line HEK293T (wt Kras, wt p53) and normal human colon fibroblast cells CCD18co (wt Kras, wt p53).
# (§5) SW620 human colorectal adenocarcinoma cells (European Collection of Cell Cultures, ECACC, Porton Down, Wiltshire, UK), HEK293T human embryonic kidney cells (ATCC, LGC Standards, UK) HCT116 human colon carcinoma cells (ECACC), HCT116 p53(+/+) and p53(−/−) isogenic human colon cancer cells (GRCF Cell Center and Biorepository, the Johns Hopkins University, School of Medicine, Baltimore, MD, USA), were grown in Dulbecco’s modified Eagle’s medium (DMEM) supplemented with 10% fetal bovine serum, and 1% antibiotic/antimycotic (Invitrogen, Grand Island, NY, USA), CCD18co human colon fibroblasts (ATCC, CRL-1459) were grown in Minimum Essential Medium (MEM) supplemented with 10% fetal bovine serum, 1% antibiotic/antimycotic, 2 mM GlutaMAX, 0,1 mM Non-essential amino acids (NEAA) (Invitrogen) and […] Recombinant Human TNF-α (Peprotech, USA) and maintained at 37°C in a humidified atmosphere of 5% CO2.
# (§6) Cell viability was evaluated by the tetrazolium dye (MTS) Short-Term Cytotoxicity Assay. […] Following 72 h of compound exposure, cell viability was evaluated using the CellTiter 96 AQueous Non-Radioactive Cell Proliferation Assay (Promega, Madison, WI, USA), using 3-(4,5-dimethylthiazol-2-yl)-5-(3-carboxymethoxyphenyl)-2-(4-sulfophenyl)-2H-tetrazolium, inner salt (MTS) as previously described [35]. Cell viability data were expressed as mean ±SD from at least three independent experiments. IC50 and IC65 values were determined using GaphPad Prism v.5.00 (GraphPad Software). In selected experiments, cell viability was also assessed by trypan blue exclusion assay, and general cell death by LDH activity from cell culture supernatants.
# T-Loop duplex DNA = assay: FRET melting assay, duplex DNA; type: binding; details: 1 μM compound; standard deviation < 0.2°C
# Description: as §1, §2, §3
# CCD18co cells = assay: MTS short-term cytotoxicity assay (72 h), CCD18co; type: cell-based; details: Homo sapiens, CCD-18Co, read-out: CCD18co IC50
# Description: as §4, §5, §6
# SW620 cells = assay: MTS short-term cytotoxicity assay (72 h), SW620; type: cell-based
# Description: as §4, §5, §6
# HEK293T cells = assay: MTS short-term cytotoxicity assay (72 h), HEK293T; type: cell-based, human
# Description: as §4, §5, §6
# KRAS gene promoter = assay: KRAS promoter activity Dual-Luciferase reporter assay; type: cell-based, human; details: HCT116 and SW620 cells, PGL-Ras0.5, 24 h, IC50 concentrations
# Source text: To validate that the mechanism of anti-proliferative activity and apoptotic induction by IQ3A compounds involves repression of KRAS gene expression as a result of the stabilization of G4-forming sequences present in the promoter, the effects of compounds on the KRAS gene promoter were directly evaluated by a luciferase reporter assay. For this purpose, we used two different size promoter constructs containing the G4 region of the KRAS gene promoter, cloned into the pGL3 Basic backbone: pGL-Ras0.5, pGL-Ras2.0, and pGL3 Basic empty (Firefly Luciferase negative control/no promoter), co-transfected together with pRL-TK (transfection efficiency normalization) into HEK293T cells, as a G4 negative control.
# KRAS promotor luciferase reporters respectively harbor 500 bp and 2000 bp of the human KRAS promotor region, kindly provided by Prof. Kim Nam-Soon. pGL3 Basic empty was used as negative control, and pRL-TK simultaneously for transfection efficiency normalization and as a G4 negative control. […] Finally, 72 h after compound incubation, cells were lysed and firefly and renilla luciferase activities were measured using Dual-Luciferase Reporter Assay System (Promega). […] Twenty-four h later, cells were lysed and renilla luciferase activities were measured and expressed as above. The results are expressed as the mean ± SEM fold-change compared to DMSO exposure, from three independent experiments.
# KRAS protein = KRAS protein steady-state expression by immunoblot; details: HCT116, 72 h, equitoxic (IC50) concentration
# [1] = 72 h, MTS, standard errors ≤ 0.1
smiles,measurement,setting,value
"C[n+]1ccc(-c2c3nc(c(-c4cc[n+](C)cc4)c4ccc([nH]4)c(-c4cc[n+](C)cc4)c4ccc([nH]4)c(-c4cc[n+](C)cc4)c4nc2C=C4)C=C3)cc1 [TMPyP4, reference compound]",ΔTm (°C) KRAS21 1 μM,KRAS21 G-quadruplex DNA,25 °C
same,reduction of KRAS mRNA steady-state levels,KRAS mRNA,unable to reduce KRAS mRNA steady-state levels
same,HCT116 IC65,HCT116 cells; [1],14.21 µM
same,Selective index (SI) = IC50 CCD-18co / IC50 HCT116,HCT116 cells; CCD18co vs HCT116,3.08
same,IC50,"HCT116 cells; Homo sapiens, HCT-116, 72 h, read-out: HCT116 IC50",12.4 µM
same,ΔTm (°C) T-Loop 1 μM,T-Loop duplex DNA,16 °C
same,IC50,CCD18co cells,38.2 µM
same,SW620 IC65,SW620 cells; [1],> 20 µM
same,IC50,"SW620 cells; Homo sapiens, SW-620, 72 h, read-out: SW620 IC50",> 20 µM
same,IC50,"HEK293T cells; Homo sapiens, HEK-293T, read-out: HEK293T IC50",2.97 µM
same,HEK293T IC65,"HEK293T cells; MTS, standard errors ≤ 0.1",4.11 µM
same,reduction of KRAS promoter activity,KRAS gene promoter,significantly reduce KRAS promoter activity
same,decrease of KRAS protein steady-state levels,KRAS protein,~80%
